Biological target: Beta-galactosidase (Escherichia coli, UniProt Q8VNN2)
Assay: PubChem AID 485352

Chain of Beta-galactosidase (Q8VNN2 whole entry): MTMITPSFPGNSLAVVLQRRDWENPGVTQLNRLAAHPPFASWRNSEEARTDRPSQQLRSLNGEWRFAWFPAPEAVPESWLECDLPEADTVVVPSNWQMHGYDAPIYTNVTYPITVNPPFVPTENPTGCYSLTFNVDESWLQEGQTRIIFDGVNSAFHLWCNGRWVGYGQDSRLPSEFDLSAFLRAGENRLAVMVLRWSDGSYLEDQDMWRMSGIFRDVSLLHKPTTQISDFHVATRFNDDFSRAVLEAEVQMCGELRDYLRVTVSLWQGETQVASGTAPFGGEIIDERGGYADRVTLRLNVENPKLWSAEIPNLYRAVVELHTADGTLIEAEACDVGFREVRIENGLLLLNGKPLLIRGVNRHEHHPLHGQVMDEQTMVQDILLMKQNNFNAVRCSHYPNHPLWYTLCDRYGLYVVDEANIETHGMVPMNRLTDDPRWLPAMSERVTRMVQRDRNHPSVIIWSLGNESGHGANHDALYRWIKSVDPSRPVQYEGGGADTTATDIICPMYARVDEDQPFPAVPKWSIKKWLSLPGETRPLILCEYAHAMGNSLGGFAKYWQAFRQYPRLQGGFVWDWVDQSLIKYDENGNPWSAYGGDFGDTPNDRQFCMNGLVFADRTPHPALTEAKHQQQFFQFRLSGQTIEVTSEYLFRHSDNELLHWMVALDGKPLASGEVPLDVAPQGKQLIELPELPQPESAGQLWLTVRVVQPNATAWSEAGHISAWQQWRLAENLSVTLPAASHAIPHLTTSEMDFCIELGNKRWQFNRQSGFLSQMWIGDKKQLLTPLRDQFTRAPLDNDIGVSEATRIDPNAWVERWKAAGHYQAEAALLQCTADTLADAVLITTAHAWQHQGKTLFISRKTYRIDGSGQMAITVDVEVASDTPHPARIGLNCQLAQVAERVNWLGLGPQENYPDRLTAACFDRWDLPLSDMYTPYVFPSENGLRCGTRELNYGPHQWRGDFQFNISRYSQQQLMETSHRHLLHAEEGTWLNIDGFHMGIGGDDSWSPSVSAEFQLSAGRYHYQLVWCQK

EC50: 39.3 µM
SMILES: CCOC(=O)C1C(C)=NC2=C(C(=O)CC(c3cccs3)C2)C1c1cccs1 (stereo unspecified) [2-Methyl-5-oxo-4,7-di-thiophen-2-yl-1,4,5,6,7,8-hexahydro-quinoline-3-carboxylic acid ethyl ester]
